SMILES strings stand for the structures.

Results on 4 compounds are retold here after US7745446B2, “Pyrazolo[1,5-c]pyrimidines” (Bayer Schering Pharma Aktiengesellschaft, priority 2004, dated 2010).

The subject of one assay is MDA-MB-468 cells. Nature of the assay: Cellular proliferation/cytotoxicity assay (Alamar Blue), MDA-MB-468. To be noted: Homo sapiens, MDA-MB-468, 48 h, read-out: Anti-proliferative/cytotoxic activity: IC50 MDA468. A general note: Resazurin is reduced to fluorescent resorufin, in cell work by metabolically active cells.
For assay [1], the target named is T1, full-length Akt1 (inactive) (Homo sapiens, UniProt P31749).
T1 construct: recombinant full-length human Akt1 a containing N-terminal His6 tag; His6 (N); purchased Upstate, UK #14-279; host or cells: baculovirus infected Sf21 insect cells
Nature of the assay: Biochemical Akt1 assay (full-length Akt1 inactive, PDK1-dependent activation, IMAP). Conditions: PDK1 and PIP3 vesicles, 50 μM ATP; read-out: Inhibition of Akt1 activation (full-length Akt1, inactive): IC50. As to the method: The enzyme is purified using Ni2+/NTA-agarose (Upstate, UK; #14-279).
The enzyme is purified using Ni2+/NTA-agarose.
PDK1-dependent activation and subsequent enzymatic activity of Akt1: Activity of purified human Akt1 is routinely measured in an assay in which the enzyme is first activated by PDK1 in the presence of phosphatidylinositol-3,4,5-triphosphate (PIP3). Once activated, Akt1-dependent phosphorylation of a fluorescence labelled peptide substrate is measured by fluorescence polarisation using the IMAP technology (Molecular Devices).
The phospholipids are prepared as follows: 5 mg DOPC/DOPS are solved in 200 μl 10 mM Tris (pH 7.4) and 300 μg PIP3 are resuspended in 950 μl 10 mM Tris (pH 7.4) by pipetting. 950 μl solved PIP3 are mixed with 50 μl solved DOPC/DOPS and incubated for 2 h at a temperature below 20° C. Then the mixture is subjected to sonification for 30 min. at max. power until a translucent phopholipid vesicle preparation is obtained. Aliquots of the vesicle suspension are frozen at -80° C. until needed, likewise the solved DOPC/DOPS.
Assays are performed in 384-well plates. Incubations are carried out for 60 min. at room temperature. The reaction buffer mixture contained in a final volume of 25 μl: 10 mM Tris pH 7,4, 10 mM MgCl2. 1 mM DTT, and 0.1 mg/ml BSA. In contrast the activation buffer contained: 50 ng/well Akt1, 20 ng/well PDK1, 1.25 μM peptide substrat, 50 μM ATP, and phospholipid vesicles (1:20). Test compounds are added from stock solutions in DMSO before activation of Akt1 by PDK1. After the incubation the beads (IMAP binding reagent; Molecular Devices; 1:167) are added and the fluorescence polarization is measured (excitation 485 nm, emission 530 nm).

In assay [2] the test system is phosphorylated GSK3 (Ser9) in MCF7 cells. Nature of the assay: Cellular pGSK3 assay (pGSK3-ELISA). The format is cell-based. To be noted: Homo sapiens, 48 h, read-out: GSK3 inhibition (pGSK3-ELISA): IC50. As to the method:
In order to study the cellular activity of the compounds according to the invention, an ELISA-based assay has been established for the phosphorylated glycogen synthetase kinase 3, GSK3. The assay is based on a solid phase sandwich ELISA that detects endogenous levels of the phosphorylated GSK3 (BioSource International, Inc.; Catalog #KH00461). A phospho-GSK3 (Ser9) antibody has been coated onto the microwells. After incubation with cell lysates, the coated antibody captures the phosphorylated GSK3 protein. Following extensive washing, GSK3 polyclonal antibody is added to detect the captured phospho-GSK3 protein. […] (anti-rabbit IgG-HRP) is then used to recognize the bound detection antibody. After the second incubation and washing to remove all the excess anti-rabbit IgG-HRP, a substrate solution is added, which is acted upon by the bound enzyme to produce color. The intensity of this colored product is directly proportional to the concentration of […] [pS9] present in the original specimen.
MCF7 cells (ATCC HTB-22) are seeded into 96 well plates at a density of 10000 cells/well.
Cells are harvested and lysed with brief vortexing in cell extraction buffer (10 mM Tris, pH 7.4, 100 mM NaCl, 1 mM EDTA, 1 mM EGTA, 1 mM NaF, 20 mM Na4P2O7, 2 mM Na3VO4, 1% Triton X-100, 10% glycerol, 0.1% SDS, 0.5% deoxycholate, 1 mM PMSF). The lysate are centrifuged for 10 minutes at 4° C. and the supernatant transferred to a new tube. 50 μl of sample diluent (standard diluent buffer, Biosource) are added and 100 μl of cell lysate transferred into the tube and vortexed. 100 μl of each diluted cell lysate are added to the appropriate well (phospho-GSK3 (Ser9) antibody coated microwells; BioSource) and incubated for 3 h at room temperature. The plates are washed 4 times with 1× wash buffer (Biosource). […] The absorbance is measured at 450 nm (Wallac Victor2; Perkin Elmer, USA) within 30 minutes after adding Stop solution. The analysis of the data is performed using a statistical program (Microsoft Excel, USA) and the inhibition of pGSK3 phosphorylation is determined.
(In general: ELISA stands for enzyme-linked immunosorbent assay.)

T1 sequence (P31749 whole entry): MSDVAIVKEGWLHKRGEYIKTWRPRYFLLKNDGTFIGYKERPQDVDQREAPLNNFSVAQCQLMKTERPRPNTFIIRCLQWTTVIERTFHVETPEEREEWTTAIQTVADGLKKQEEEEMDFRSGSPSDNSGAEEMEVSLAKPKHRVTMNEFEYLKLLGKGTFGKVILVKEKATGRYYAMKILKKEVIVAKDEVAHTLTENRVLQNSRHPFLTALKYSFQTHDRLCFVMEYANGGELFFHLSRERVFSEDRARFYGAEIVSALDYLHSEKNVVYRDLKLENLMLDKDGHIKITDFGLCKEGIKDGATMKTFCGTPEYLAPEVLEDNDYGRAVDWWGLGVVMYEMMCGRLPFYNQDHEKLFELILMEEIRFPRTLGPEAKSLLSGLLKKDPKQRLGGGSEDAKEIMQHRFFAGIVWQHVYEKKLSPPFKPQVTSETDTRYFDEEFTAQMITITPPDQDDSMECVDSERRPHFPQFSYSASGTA
Protocol for MDA-MB-468 cells: The anti-proliferative activity of the compounds as described herein, is evaluated using MCF7 and MDA-MB-468 (ATCC HTB-22 and HTB-132) cell lines and the Alamar Blue (Resazurin) cell viability assay (O'Brien et al. Eur J Biochem 267, 5421-5426, 2000). Resazurin is reduced to the fluorescent resorufin by cellular dehydrogenase activity, correlating with viable, proliferating cells. Test compounds are dissolved as 10 mM solutions in DMSO and subsequently diluted. MCF7 or MDA-MB-434 cells were seeded into 96 well flat bottom plates at a density of 10000 cells/well (MCF7) or 5000 cells/well (MDA-MB-468) in a volume of 200 μl/well. 24 hours after seeding, 1 μl each of the compound dilutions are added into each well of the 96 well plates. Each compound dilution is tested as at least as duplicates. Wells containing untreated control cells were filled with 200 μl DMEM containing 0.5% v:v DMSO. The cells are then incubated with the substances for 48 hours at 37° C. in a humidified atmosphere containing 5% carbon dioxide. To determine cell viability, 20 μl of a Resazurin solution (Sigma; 90 mg/l) are added. After 4 hours incubation at 37° C. the fluorescence is measured at an extinction of 544 nm and an emission of 590 nm (Wallac Victor2; Perkin Elmer, USA). For the calculation of the cell viability the emission value from untreated cells is set as 100% viability and the emission rates of treated cells are set in relation to the values of untreated cells. Viabilities are expressed as % values. The corresponding IC50 values of the compounds for cytotoxic activity are determined from the concentration-effect curves by means of non-linear regression. The analysis of the data is performed using a biostatistical program (GraphPad Prism, USA).

For the compound `NCCCC(=O)Nc1ccc(Nc2nc(-c3cccc4c3oc3ccccc34)cc3ccnn23)cc1` [Example 24, 4-Amino-N-[4-(5-dibenzofuran-4-yl-pyrazolo[1,5-c]pyrimidin-7-ylamino)-phenyl]-butyramide], the figures for the IC50 (in the assay with MDA-MB-468 cells; in assay [1]; in assay [2]) were ≤ 13.6 µM, ≤ 5 µM and < 10 µM, respectively.
For `COc1cccc(-c2ccc(-c3cc4ccnn4c(Nc4ccc(NC(=O)c5ccc(CN)cc5)cc4)n3)cc2)c1` [Example 59, 4-Aminomethyl-N-{4-[5-(3′-methoxy-biphenyl-4-yl)-pyrazolo[1,5-c]pyrimidin-7-ylamino]-phenyl}-benzamide] the same measures were ≤ 13.6 µM, ≤ 5 µM and < 10 µM.
For `O=C(Nc1cccc(Nc2nc(-c3cccc4c3oc3ccccc34)cc3ccnn23)c1)c1ccc2c(c1)CCNC2` [Example 63, 1,2,3,4-Tetrahydro-isoquinoline-6-carboxylic acid [3-(5-dibenzofuran-4-yl-pyrazolo[1,5-c]pyrimidin-7-ylamino)-phenyl]-amide] the same measures were ≤ 13.6 µM, ≤ 5 µM and < 10 µM.
For the compound `COc1cccc(-c2ccc(-c3cc4c(Br)cnn4c(Nc4ccc(NC(=O)c5ccc(CN)cc5)cc4)n3)cc2)c1` [Example 87, 4-Aminomethyl-N-{4-[3-bromo-5-(3′-methoxy-biphenyl-4-yl)-pyrazolo[1,5-c]pyrimidin-7-ylamino]-phenyl}-benzamide], the IC50 in the assay with MDA-MB-468 cells was ≤ 13.6 µM; in assay [1] it was ≤ 5 µM.
